Legend:
Assay type in all cases: in vivo
[1] = test system: rice leafroller (Cnaphalocrocis medinalis); test: Insecticidal effect on rice leafroller (Test Example 3); settings: 500 ppm, 25° C., humidity 70%; for Insecticidal effect on rice leafroller (Test Example 3), judged grade / Insecticidal effect (Test Example 3), judged from mortality: rice lamina dip; for Insecticidal effect on rice leafroller (Test Example 3), judged grade: third-instar larvae; for Insecticidal effect on rice leafroller (Test Example 3), judged grade / Insecticidal effect, Test Example 3: four days after inoculation; for Insecticidal effect (Test Example 3), judged from mortality: 4 days after inoculation; for Insecticidal effect, Test Example 3: rice lamina immersed
Summary of the method: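 Insecticidal effect is judged by a predefined criterion from dead/alive counts four days after infesting air-dried lamina with third-instar larvae, kept on moistened filter paper at 25° C, 70% humidity.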

[2] = test system: diamondback moth (Plutella xylostella); test: Insecticidal effect on diamondback moth (Test Example 1); settings: for Insecticidal effect on diamondback moth (Test Example 1), judged grade: mortality judged according to the criterion shown in Test Example 1; for Insecticidal effect (Test Example 1), judged from mortality / Insecticidal effect, Test Example 1: diamondback moth; for Insecticidal effect (Test Example 1), judged from mortality: judged by the criterion of Test Example 1
Summary of the method: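 Oviposition by adults on Chinese cabbage seedling; immersion; air-dry; 25° C room. Count of hatched larvae at day 6 post-immersion → mortality → effect graded by criterion. Triplicate, 10 insects/group.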

[3] = test system: common cutworm (Spodoptera Litura); test: Insecticidal effect on common cutworm (Test Example 2); settings: 500 ppm, 25° C.; for Insecticidal effect on common cutworm (Test Example 2), judged grade / Insecticidal effect (Test Example 2), judged from mortality: cabbage leaf dip; for Insecticidal effect on common cutworm (Test Example 2), judged grade: second-instar larvae; for Insecticidal effect on common cutworm (Test Example 2), judged grade / Insecticidal effect, Test Example 2: eight days after inoculation; for Insecticidal effect (Test Example 2), judged from mortality: 8 days after inoculation; for Insecticidal effect, Test Example 2: cabbage leaf immersed
Summary of the method: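 2nd-instar larvae on air-dried treatment, closed dish, 25° C; dead/alive counted at day 8. Mortality calculated, graded by criterion. 3 × 10 insects.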

[4] = third-instar larvae of rice leafroller
[5] = second-instar larvae of common cutworm
[6] = judged by the mortality criterion of Test Example 1
[7] = rice leafroller third-instar larvae
[8] = mortality judged by criterion of Test Example 1
[9] = common cutworm second-instar larvae

SMILES: Cc1cc(OC(F)(F)C(F)(Br)C(F)(F)F)ccc1NC(=O)c1c(F)cccc1C(=O)NC(C)C (stereo not drawn) [compound 569]
- Insecticidal effect on rice leafroller (Test Example 3), judged grade [1]: A (100)
- Insecticidal effect on diamondback moth (Test Example 1), judged grade [2]: A (100)
- Insecticidal effect on common cutworm (Test Example 2), judged grade [3]: A (100)

SMILES: Cc1cc(OC(F)F)ccc1NC(=O)c1cccc(F)c1C(=O)NC(C)(C)C [compound 1506]
- Insecticidal effect (Test Example 3), judged from mortality [1, 4]: A (100)
- Insecticidal effect (Test Example 1), judged from mortality [2]: A (100)
- Insecticidal effect (Test Example 2), judged from mortality [3, 5]: A (100)

SMILES: Cc1cc(OC(F)F)ccc1NC(=O)c1cccc(Br)c1C(=O)NC(C)C [compound 288]
- Insecticidal effect, Test Example 3 [1, 4]: A (100)
- Insecticidal effect, Test Example 1 [2, 6]: A (100)
- Insecticidal effect, Test Example 2 [3, 5]: A (100)

SMILES: Cc1cc(OC(F)(F)Br)ccc1NC(=O)c1cccc(Cl)c1C(=O)NC(C)C [compound 140]
- Insecticidal effect, Test Example 3 [1, 4]: A (100)
- Insecticidal effect, Test Example 1 [2, 6]: A (100)
- Insecticidal effect, Test Example 2 [3, 5]: A (100)

SMILES: Cc1cc(C(F)(F)C(F)(F)F)ccc1NC(=O)c1ccccc1C(=O)NC(C)C [compound 55]
- Insecticidal effect, Test Example 3 [1, 4]: A (100)
- Insecticidal effect, Test Example 1 [2, 6]: A (100)
- Insecticidal effect, Test Example 2 [3, 5]: B (99-90)

SMILES: CCNC(=O)c1c(I)cccc1C(=O)Nc1ccc(C(F)(F)C(F)(F)F)cc1Cl [compound 1503]
- Insecticidal effect (Test Example 3), judged from mortality [1, 4]: A (100)
- Insecticidal effect (Test Example 1), judged from mortality [2]: A (100)
- Insecticidal effect (Test Example 2), judged from mortality [3, 5]: C (89-80)

SMILES: CC(C)NC(=O)c1c(F)cccc1C(=O)Nc1ccc(C(F)(F)C(F)(F)F)cc1Cl [compound 1516]
- Insecticidal effect (Test Example 3), judged from mortality [1, 4]: A (100)
- Insecticidal effect (Test Example 1), judged from mortality [2]: A (100)
- Insecticidal effect (Test Example 2), judged from mortality [3, 5]: A (100)

SMILES: Cc1cc(C(F)(F)C(F)(F)F)ccc1NC(=O)c1cccc(I)c1C(=O)NC(C)C(C)C (stereo not drawn) [compound 1033]
- Insecticidal effect, Test Example 3 [1, 7]: A (100)
- Insecticidal effect, Test Example 1 [2, 8]: A (100)
- Insecticidal effect, Test Example 2 [3, 9]: A (100)

SMILES: CC(C)NC(=O)c1cccc(I)c1C(=O)Nc1ccc(C(F)(C(F)(F)F)C(F)(F)F)cc1 [compound 416]
- Insecticidal effect, Test Example 3 [1, 4]: A (100)
- Insecticidal effect, Test Example 1 [2, 6]: A (100)
- Insecticidal effect, Test Example 2 [3, 5]: A (100)

SMILES: Cc1cc(OC(F)(F)C(F)F)c(Cl)cc1NC(=O)c1cccc(Cl)c1C(=O)NC(C)C [compound 152]
- Insecticidal effect, Test Example 3 [1, 4]: A (100)
- Insecticidal effect, Test Example 1 [2, 6]: A (100)
- Insecticidal effect, Test Example 2 [3, 5]: A (100)

SMILES: Cc1cc(C(F)(F)C(F)(F)F)ccc1NC(=O)c1cccc(I)c1C(=O)N[C@H](C)CO [compound 1481]
- Insecticidal effect (Test Example 3), judged from mortality [1, 4]: A (100)
- Insecticidal effect (Test Example 1), judged from mortality [2]: A (100)
- Insecticidal effect (Test Example 2), judged from mortality [3, 5]: A (100)

SMILES: CC(C)(C)NC(=O)c1c(Cl)cccc1C(=O)Nc1ccc(C(F)(F)F)cc1 [compound 934]
- Insecticidal effect on rice leafroller (Test Example 3), judged grade [1]: A (100)
- Insecticidal effect on diamondback moth (Test Example 1), judged grade [2]: A (100)
- Insecticidal effect on common cutworm (Test Example 2), judged grade [3]: A (100)

SMILES: Cc1cc(C(F)(F)C(F)(F)F)ccc1NC(=O)c1cccc(I)c1C(=O)NC(C)(C)CBr [compound 1647]
- Insecticidal effect (Test Example 3), judged from mortality [1, 4]: A (100)
- Insecticidal effect (Test Example 1), judged from mortality [2]: A (100)
- Insecticidal effect (Test Example 2), judged from mortality [3, 5]: A (100)

SMILES: Cc1cc(C(F)(F)C(F)(F)F)ccc1NC(=O)c1cccc(OC(F)(F)F)c1C(=O)NC(C)(C)C [compound 1192]
- Insecticidal effect, Test Example 3 [1, 7]: A (100)
- Insecticidal effect, Test Example 1 [2, 8]: A (100)
- Insecticidal effect, Test Example 2 [3, 9]: A (100)

SMILES: CCCCCNC(=O)c1c(I)cccc1C(=O)Nc1ccc(C(F)(F)C(F)(F)F)cc1C [compound 947]
- Insecticidal effect, Test Example 3 [1, 7]: A (100)
- Insecticidal effect, Test Example 1 [2, 8]: A (100)
- Insecticidal effect, Test Example 2 [3, 9]: A (100)

SMILES: Cc1cc(OC(F)(F)F)ccc1NC(=O)c1cccc(C(F)(F)F)c1C(=O)NC(C)(C)C [compound 1230]
- Insecticidal effect, Test Example 3 [1, 7]: A (100)
- Insecticidal effect, Test Example 1 [2, 8]: A (100)
- Insecticidal effect, Test Example 2 [3, 9]: A (100)

SMILES: CCc1cc(OC(F)(F)F)ccc1NC(=O)c1cccc(I)c1C(=O)NC(C)C [compound 1210]
- Insecticidal effect, Test Example 3 [1, 7]: A (100)
- Insecticidal effect, Test Example 1 [2, 8]: A (100)
- Insecticidal effect, Test Example 2 [3, 9]: A (100)

SMILES: CC(C)NC(=O)c1c(C(=O)Nc2ccc(OC(F)(F)C(F)OC(F)(F)C(F)(F)C(F)(F)F)cc2)cccc1[N+](=O)[O-] (stereo not drawn) [compound 619]
- Insecticidal effect on rice leafroller (Test Example 3), judged grade [1]: A (100)
- Insecticidal effect on diamondback moth (Test Example 1), judged grade [2]: A (100)
- Insecticidal effect on common cutworm (Test Example 2), judged grade [3]: A (100)

SMILES: CC(C)NC(=O)c1c(I)cccc1C(=O)Nc1ccc(OC(F)(F)C(F)OC(F)(F)F)cc1 (stereo not drawn) [compound 353]
- Insecticidal effect, Test Example 3 [1, 4]: A (100)
- Insecticidal effect, Test Example 1 [2, 6]: A (100)
- Insecticidal effect, Test Example 2 [3, 5]: A (100)

SMILES: Cc1cc(C(F)(F)C(F)(F)F)ccc1NC(=O)c1c(I)cccc1C(=O)NC(C)C [compound 437]
- Insecticidal effect, Test Example 3 [1, 4]: A (100)
- Insecticidal effect, Test Example 1 [2, 6]: A (100)
- Insecticidal effect, Test Example 2 [3, 5]: C (89-80)

SMILES: Cc1c(Cl)ccc(NC(=O)c2cccc(Br)c2C(=O)NC(C)C)c1C [compound 269]
- Insecticidal effect, Test Example 3 [1, 4]: A (100)
- Insecticidal effect, Test Example 1 [2, 6]: A (100)
- Insecticidal effect, Test Example 2 [3, 5]: A (100)

SMILES: CSc1cc(NC(=O)c2cccc(I)c2C(=O)NC(C)C)ccc1C(F)(C(F)(F)F)C(F)(F)F [compound 1766]
- Insecticidal effect (Test Example 3), judged from mortality [1, 4]: A (100)
- Insecticidal effect (Test Example 1), judged from mortality [2]: A (100)
- Insecticidal effect (Test Example 2), judged from mortality [3, 5]: A (100)

SMILES: CC(C)NC(=O)c1c(Cl)cccc1C(=O)Nc1ccc(S(=O)(=O)C(F)(F)F)cc1 [compound 1078]
- Insecticidal effect, Test Example 3 [1, 7]: A (100)
- Insecticidal effect, Test Example 1 [2, 8]: A (100)
- Insecticidal effect, Test Example 2 [3, 9]: A (100)

SMILES: Cc1cc(-c2ccc(C(F)(F)F)cc2)ccc1NC(=O)c1cccc(I)c1C(=O)NC(C)C [compound 1522]
- Insecticidal effect (Test Example 3), judged from mortality [1, 4]: A (100)
- Insecticidal effect (Test Example 1), judged from mortality [2]: A (100)
- Insecticidal effect (Test Example 2), judged from mortality [3, 5]: A (100)

SMILES: C#CC(C)(C)NC(=O)c1c(I)cccc1C(=O)Nc1ccc(C(F)(F)C(F)(F)F)cc1C [compound 1629]
- Insecticidal effect (Test Example 3), judged from mortality [1, 4]: A (100)
- Insecticidal effect (Test Example 1), judged from mortality [2]: A (100)
- Insecticidal effect (Test Example 2), judged from mortality [3, 5]: A (100)

SMILES: Cc1cc(OC(F)(F)C(F)(Br)C(F)(F)F)ccc1NC(=O)c1cccc(F)c1C(=O)NC(C)C (stereo not drawn) [compound 516]
- Insecticidal effect on rice leafroller (Test Example 3), judged grade [1]: A (100)
- Insecticidal effect on diamondback moth (Test Example 1), judged grade [2]: A (100)
- Insecticidal effect on common cutworm (Test Example 2), judged grade [3]: A (100)

SMILES: Cc1cc(C(F)(C(F)(F)F)C(F)(F)F)ccc1NC(=O)c1cccc(I)c1C(=O)NC(C)c1ccccn1 (stereo not drawn) [compound 1773]
- Insecticidal effect (Test Example 3), judged from mortality [1, 4]: A (100)
- Insecticidal effect (Test Example 1), judged from mortality [2]: A (100)
- Insecticidal effect (Test Example 2), judged from mortality [3, 5]: A (100)

SMILES: Cc1cc(SC(F)(F)C(F)(F)F)ccc1NC(=O)c1c(Cl)cccc1C(=O)NC(C)C [compound 908]
- Insecticidal effect on rice leafroller (Test Example 3), judged grade [1]: A (100)
- Insecticidal effect on diamondback moth (Test Example 1), judged grade [2]: A (100)
- Insecticidal effect on common cutworm (Test Example 2), judged grade [3]: D (79-50)

SMILES: Cc1cccc(NC(=O)c2cccc(Cl)c2C(=O)NC(C)C)c1C [compound 117]
- Insecticidal effect, Test Example 3 [1, 4]: A (100)
- Insecticidal effect, Test Example 1 [2, 6]: A (100)
- Insecticidal effect, Test Example 2 [3, 5]: A (100)

SMILES: Cc1cc(C(F)(F)C(F)(F)C(F)(F)C(F)(F)F)ccc1NC(=O)c1cccc(Cl)c1C(=O)NC(C)C [compound 132]
- Insecticidal effect, Test Example 3 [1, 4]: A (100)
- Insecticidal effect, Test Example 1 [2, 6]: A (100)
- Insecticidal effect, Test Example 2 [3, 5]: A (100)

SMILES: CC(C)NC(=O)c1c(F)cccc1C(=O)Nc1ccc(C(F)(F)F)cc1Cl [compound 504]
- Insecticidal effect on rice leafroller (Test Example 3), judged grade [1]: A (100)
- Insecticidal effect on diamondback moth (Test Example 1), judged grade [2]: A (100)
- Insecticidal effect on common cutworm (Test Example 2), judged grade [3]: A (100)

SMILES: Cc1cc(OC(F)(F)C(F)C(F)(F)F)ccc1NC(=O)c1cccc([N+](=O)[O-])c1C(=O)NC(C)C (stereo not drawn) [compound 716]
- Insecticidal effect on rice leafroller (Test Example 3), judged grade [1]: A (100)
- Insecticidal effect on diamondback moth (Test Example 1), judged grade [2]: A (100)
- Insecticidal effect on common cutworm (Test Example 2), judged grade [3]: A (100)

SMILES: Cc1cc(I)ccc1NC(=O)c1c(Br)cccc1C(=O)NC(C)C [compound 313]
- Insecticidal effect, Test Example 3 [1, 4]: A (100)
- Insecticidal effect, Test Example 1 [2, 6]: A (100)
- Insecticidal effect, Test Example 2 [3, 5]: A (100)

SMILES: CC(C)(C)NC(=O)c1c(I)cccc1C(=O)Nc1ccc(C(O)(C(F)(F)F)C(F)(F)F)cc1 [compound 1054]
- Insecticidal effect, Test Example 3 [1, 7]: A (100)
- Insecticidal effect, Test Example 1 [2, 8]: A (100)
- Insecticidal effect, Test Example 2 [3, 9]: A (100)

SMILES: Cc1cc(OC(F)(F)F)ccc1NC(=O)c1cccc(I)c1C(=O)NC(C)C [compound 386]
- Insecticidal effect, Test Example 3 [1, 4]: A (100)
- Insecticidal effect, Test Example 1 [2, 6]: A (100)
- Insecticidal effect, Test Example 2 [3, 5]: A (100)

Source: patent publication US6362369B1, “Phthalic acid diamide derivatives fluorine-containing aniline compounds as starting material, agricultural and horticultural insecticides, and a method for application of the insecticides” (Nihon Nohyaku Co., Ltd., priority 1997, dated 2002)
